Test results as given in patent publication US10072017B2, “Compounds and methods for the treatment of cystic fibrosis” (Flatley Discovery Lab, LLC, priority 2015, dated 2018).

Target: T1, CFTR (Homo sapiens, UniProt P13569, DEL508-508)
T1 construct: Primary CF airway epithelial cells were obtained from the UNC Cystic Fibrosis Tissue Procurement and Cell Culture Core; host or cells: primary CF airway epithelial cells
Test: Equivalent current assay in Primary CF airway epithelial cells (NAUC)
Assay type: cell-based
Conditions: 24 h, normalized to VX809 (3 μM) positive control; for Nauc @ 3 μM: 3 μM test compound; for Nauc @ 10 μM: 10 μM test compound
Procedure, shortened: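 NAUC is the area under the curve from forskolin (10 μM) plus VX770 (1 μM) addition to CFTR-172 (20 μM) block, after benzamil (5 μM). It is corrected for vehicle and scaled to 3 μM VX809 as 1.0 and DMSO as 0.0. Cells were exposed for 24 h to compounds with VX809; medians of ≥4 replicates were fitted sigmoidally.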

T1 sequence (P13569 with tags, fused parts or gaps DEL508-508): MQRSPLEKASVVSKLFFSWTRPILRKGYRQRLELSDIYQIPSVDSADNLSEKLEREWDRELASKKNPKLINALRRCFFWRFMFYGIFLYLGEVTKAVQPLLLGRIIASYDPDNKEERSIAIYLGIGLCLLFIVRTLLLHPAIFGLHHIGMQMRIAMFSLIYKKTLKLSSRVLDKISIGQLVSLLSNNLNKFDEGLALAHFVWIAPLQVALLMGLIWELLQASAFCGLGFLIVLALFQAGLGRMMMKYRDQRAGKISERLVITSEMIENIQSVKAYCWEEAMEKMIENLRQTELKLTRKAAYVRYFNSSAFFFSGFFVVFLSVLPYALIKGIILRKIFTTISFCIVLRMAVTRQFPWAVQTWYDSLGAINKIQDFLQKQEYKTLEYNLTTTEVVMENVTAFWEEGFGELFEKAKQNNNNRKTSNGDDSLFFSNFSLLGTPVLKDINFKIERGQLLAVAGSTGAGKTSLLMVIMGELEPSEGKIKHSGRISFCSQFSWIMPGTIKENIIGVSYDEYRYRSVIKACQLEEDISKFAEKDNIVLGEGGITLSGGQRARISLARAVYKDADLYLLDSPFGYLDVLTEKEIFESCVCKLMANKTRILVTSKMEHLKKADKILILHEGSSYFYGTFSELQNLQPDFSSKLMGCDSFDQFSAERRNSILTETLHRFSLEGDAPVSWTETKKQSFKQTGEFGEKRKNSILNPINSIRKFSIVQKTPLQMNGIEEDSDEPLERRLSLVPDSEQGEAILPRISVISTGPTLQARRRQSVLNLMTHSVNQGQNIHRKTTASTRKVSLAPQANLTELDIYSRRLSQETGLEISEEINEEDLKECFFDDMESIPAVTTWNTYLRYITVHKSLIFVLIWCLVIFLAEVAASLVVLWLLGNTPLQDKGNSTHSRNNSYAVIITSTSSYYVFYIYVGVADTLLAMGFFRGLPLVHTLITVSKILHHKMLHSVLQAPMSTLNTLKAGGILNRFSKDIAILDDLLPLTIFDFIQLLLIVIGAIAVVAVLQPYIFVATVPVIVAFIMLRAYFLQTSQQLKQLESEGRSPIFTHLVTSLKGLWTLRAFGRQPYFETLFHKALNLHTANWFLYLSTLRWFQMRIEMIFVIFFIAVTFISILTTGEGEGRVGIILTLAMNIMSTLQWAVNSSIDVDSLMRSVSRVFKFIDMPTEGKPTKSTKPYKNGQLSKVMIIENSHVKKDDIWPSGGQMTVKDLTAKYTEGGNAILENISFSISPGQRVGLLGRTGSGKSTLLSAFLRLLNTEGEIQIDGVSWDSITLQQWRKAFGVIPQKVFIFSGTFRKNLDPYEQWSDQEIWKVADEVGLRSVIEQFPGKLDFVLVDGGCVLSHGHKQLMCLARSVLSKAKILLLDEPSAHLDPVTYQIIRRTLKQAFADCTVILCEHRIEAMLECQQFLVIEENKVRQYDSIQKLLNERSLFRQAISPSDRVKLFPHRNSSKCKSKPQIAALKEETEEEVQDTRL

SMILES | Nauc @ 3 μM | Nauc @ 10 μM
O=C1C2C(Cc3cccc(Cl)c3)NC3(C(=O)Nc4c(Cl)cc(Cl)cc43)C2C(=O)N1c1cc(Cl)cc(Cl)c1 (stereo not shown) [Example 187] | +++ (NAUC “+++” refers to an observed NAUC >170% of positive control) | ++ (NAUC “++” refers to an observed NAUC 170-140% of positive control)
O=C1C2C(Cc3ccccc3O)NC3(C(=O)Nc4c(Cl)cc(Cl)cc43)C2C(=O)N1c1cc(Cl)cc(Cl)c1 (stereo not shown) [Example 188] | + (NAUC “+” refers to an observed NAUC <140% of positive control) | +++ (NAUC “+++” refers to an observed NAUC >170% of positive control)
N#Cc1ccc(CC2NC3(C(=O)Nc4c(Cl)cc(Cl)cc43)C3C(=O)N(c4cc(Cl)cc(Cl)c4)C(=O)C23)cc1 (stereo not shown) [Example 189] | + (NAUC “+” refers to an observed NAUC <140% of positive control) | +++ (NAUC “+++” refers to an observed NAUC >170% of positive control)
O=C1C2C(Cc3ccccc3Cl)NC3(C(=O)Nc4c(Cl)cc(Cl)cc43)C2C(=O)N1c1cc(Cl)cc(Cl)c1 (stereo not shown) [Example 190] | +++ (NAUC “+++” refers to an observed NAUC >170% of positive control) | +++ (NAUC “+++” refers to an observed NAUC >170% of positive control)
O=C1C2C3CC(F)(F)CN3C3(C(=O)Nc4c(Cl)cc(Cl)cc43)C2C(=O)N1c1cc(Cl)cc(Cl)n1 (stereo not shown) [Example 193] | +++ (NAUC “+++” refers to an observed NAUC >170% of positive control) | +++ (NAUC “+++” refers to an observed NAUC >170% of positive control)
COc1c(Cl)cc(N2C(=O)C3C4CC(F)(F)CN4C4(C(=O)Nc5c(Cl)cc(Cl)cc54)C3C2=O)cc1Cl (stereo not shown) [Example 194] | +++ (NAUC “+++” refers to an observed NAUC >170% of positive control) | ++ (NAUC “++” refers to an observed NAUC 170-140% of positive control)
Cc1ccc(CC2NC3(C(=O)Nc4c(Cl)cc(Cl)cc43)C3C(=O)N(c4cc(Cl)cc(Cl)c4)C(=O)C23)cc1 (stereo not shown) [Example 195] | + (NAUC “+” refers to an observed NAUC <140% of positive control) | ++ (NAUC “++” refers to an observed NAUC 170-140% of positive control)
O=C1C2C(Cc3ccc(F)cc3)NC3(C(=O)Nc4c(Cl)cc(Cl)cc43)C2C(=O)N1c1cc(Cl)cc(Cl)c1 (stereo not shown) [Example 196] | + (NAUC “+” refers to an observed NAUC <140% of positive control) | ++ (NAUC “++” refers to an observed NAUC 170-140% of positive control)
COc1ccc(CC2NC3(C(=O)Nc4c(Cl)cc(Cl)cc43)C3C(=O)N(c4cc(Cl)cc(Cl)c4)C(=O)C23)cc1 (stereo not shown) [Example 198] | + (NAUC “+” refers to an observed NAUC <140% of positive control) | ++ (NAUC “++” refers to an observed NAUC 170-140% of positive control)
Cc1ccccc1CC1NC2(C(=O)Nc3c(Cl)cc(Cl)cc32)C2C(=O)N(c3cc(Cl)cc(Cl)c3)C(=O)C12 (stereo not shown) [Example 199] | +++ (NAUC “+++” refers to an observed NAUC >170% of positive control) | ++ (NAUC “++” refers to an observed NAUC 170-140% of positive control)
COc1cccc(CC2NC3(C(=O)Nc4c(Cl)cc(Cl)cc43)C3C(=O)N(c4cc(Cl)cc(Cl)c4)C(=O)C23)c1 (stereo not shown) [Example 200] | ++ (NAUC “++” refers to an observed NAUC 170-140% of positive control) | + (NAUC “+” refers to an observed NAUC <140% of positive control)
COc1ccccc1CC1NC2(C(=O)Nc3c(Cl)cc(Cl)cc32)C2C(=O)N(c3cc(Cl)cc(Cl)c3)C(=O)C12 (stereo not shown) [Example 201] | + (NAUC “+” refers to an observed NAUC <140% of positive control) | +++ (NAUC “+++” refers to an observed NAUC >170% of positive control)
O=C1C2C(Cc3cccc(O)c3)NC3(C(=O)Nc4c(Cl)cc(Cl)cc43)C2C(=O)N1c1cc(Cl)cc(Cl)c1 (stereo not shown) [Example 202] | + (NAUC “+” refers to an observed NAUC <140% of positive control) | ++ (NAUC “++” refers to an observed NAUC 170-140% of positive control)
O=C1C2C(Cc3ccccn3)NC3(C(=O)Nc4c(Cl)cc(Cl)cc43)C2C(=O)N1c1cc(Cl)cc(Cl)c1 (stereo not shown) [Example 203] | ++ (NAUC “++” refers to an observed NAUC 170-140% of positive control) | ++ (NAUC “++” refers to an observed NAUC 170-140% of positive control)
C[C@]1(F)CC2C3C(=O)N(c4cc(Cl)cc(Cl)c4)C(=O)C3C3(C(=O)Nc4c(Cl)cc(Cl)cc43)N2C1 (stereo partly shown) [Example 204] | + (NAUC “+” refers to an observed NAUC <140% of positive control) | +++ (NAUC “+++” refers to an observed NAUC >170% of positive control)
COc1cc(Cl)cc(N2C(=O)C3C4C[C@](C)(F)CN4C4(C(=O)Nc5c(Cl)cc(Cl)cc54)C3C2=O)c1 (stereo partly shown) [Example 205] | ++ (NAUC “++” refers to an observed NAUC 170-140% of positive control) | +++ (NAUC “+++” refers to an observed NAUC >170% of positive control)
C[C@@]1(O)CC2C3C(=O)N(c4cc(Cl)cc(Cl)n4)C(=O)C3C3(C(=O)Nc4c(Cl)cc(Cl)cc43)N2C1 (stereo partly shown) [Example 206] | ++ (NAUC “++” refers to an observed NAUC 170-140% of positive control) | +++ (NAUC “+++” refers to an observed NAUC >170% of positive control)
Nc1ccc(CC2NC3(C(=O)Nc4c(Cl)cc(Cl)cc43)C3C(=O)N(c4cc(Cl)cc(Cl)c4)C(=O)C23)cc1 (stereo not shown) [Example 207] | ++ (NAUC “++” refers to an observed NAUC 170-140% of positive control) | + (NAUC “+” refers to an observed NAUC <140% of positive control)
O=C1C2C(C3CCCCC3)NC3(C(=O)Nc4c(Cl)cc(Cl)cc43)C2C(=O)N1c1cc(Cl)cc(Cl)c1 (stereo not shown) [Example 208] | ++ (NAUC “++” refers to an observed NAUC 170-140% of positive control) | + (NAUC “+” refers to an observed NAUC <140% of positive control)
O=C1C2CN(c3ccccc3)C3(C(=O)Nc4c(Cl)cc(Cl)cc43)C2C(=O)N1c1cc(Cl)cc(Cl)c1 (stereo not shown) [Example 209] | + (NAUC “+” refers to an observed NAUC <140% of positive control) | +++ (NAUC “+++” refers to an observed NAUC >170% of positive control)
O=C1C2C(C(=O)N1c1cc(Cl)cc(Cl)c1)C1(NC23CC3)C(=O)Nc2c(Cl)cc(Cl)cc21 (stereo not shown) [Example 210] | + (NAUC “+” refers to an observed NAUC <140% of positive control) | ++ (NAUC “++” refers to an observed NAUC 170-140% of positive control)
O=C1C2C(C(=O)N1c1cc(Cl)cc(Cl)c1)C1(NC23CCC3)C(=O)Nc2c(Cl)cc(Cl)cc21 (stereo not shown) [Example 211] | ++ (NAUC “++” refers to an observed NAUC 170-140% of positive control) | ++ (NAUC “++” refers to an observed NAUC 170-140% of positive control)
O=C1C2C(c3ccccn3)NC3(C(=O)Nc4c(Cl)cc(Cl)cc43)C2C(=O)N1c1cc(Cl)cc(Cl)c1 (stereo not shown) [Example 212] | + (NAUC “+” refers to an observed NAUC <140% of positive control) | ++ (NAUC “++” refers to an observed NAUC 170-140% of positive control)
